Experimental data as given in PubChem BioAssay (NCI).
Values joined by “and” are separate entries in the source; they are usually repeats but may differ in a detail not shown here. Identical values can stand only once.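 Step 1: Grow cells in 96-well plates. Step 2: Expose to compound for 48 hours at 5 concentrations. Step 3: Interpolate endpoints linearly; if unreached, use highest concentration. At the GI50, growth is halved. TGI denotes the concentration required for complete inhibition of growth.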

Experiments:
Assay in all cases: NCI-60 cell line screen, 48 h
A549 NSCLC = test system: A549 NSCLC
ACHN renal = test system: ACHN renal
BT-549 breast = test system: BT-549 breast
CAKI-1 renal = test system: CAKI-1 renal
HOP-92 NSCLC = test system: HOP-92 NSCLC
NCI/ADR-RES ovarian = test system: NCI/ADR-RES ovarian
OVCAR-4 ovarian = test system: OVCAR-4 ovarian
SK-OV-3 ovarian = test system: SK-OV-3 ovarian
SNB-75 CNS = test system: SNB-75 CNS
TK-10 renal = test system: TK-10 renal

SMILES | GI50 (A549 NSCLC) | TGI (A549 NSCLC) | GI50 (ACHN renal) | TGI (ACHN renal) | GI50 (BT-549 breast) | TGI (BT-549 breast) | GI50 (CAKI-1 renal) | TGI (CAKI-1 renal) | GI50 (HOP-92 NSCLC) | TGI (HOP-92 NSCLC) | GI50 (NCI/ADR-RES ovarian) | TGI (NCI/ADR-RES ovarian) | GI50 (OVCAR-4 ovarian) | TGI (OVCAR-4 ovarian) | GI50 (SK-OV-3 ovarian) | TGI (SK-OV-3 ovarian) | GI50 (SNB-75 CNS) | TGI (SNB-75 CNS) | GI50 (TK-10 renal) | TGI (TK-10 renal)
COc1ccccc1-c1cc2c3c(nc4ccccc42)C(=O)c2cccnc2-c3n1 | 10 µM | 24 µM | 13.7 µM | 30.1 µM | 13.3 µM | 18.1 µM | 13 µM | 27.2 µM | 19.1 µM | > 100 µM | 7.11 µM | 32.6 µM | 13.5 µM | 38.7 µM | 20.8 µM | 51.2 µM | 8.89 µM | 22.6 µM | 14.8 µM | 29.6 µM
O=C1C=C(SCCO)C(=O)c2ccccc21 | 2.24 µM | 4.59 µM | 1.54 µM | 2.87 µM | 1.55 µM | 2.98 µM | 2.08 µM | 6.97 µM | 1.3 µM | 3.01 µM | 2.16 µM | 5.82 µM | 1.42 µM | 2.75 µM | 3.97 µM | 16.3 µM | 1.37 µM | 2.68 µM | 2.75 µM | 6.2 µM
Cn1cc(-c2cc3c(Nc4ccc(CC(=O)Nc5cc(C(C)(C)C)on5)cc4)ncnc3[nH]2)cn1 | 2.42 µM and 2.84 µM | 8.76 µM and 10.5 µM | 1.94 µM and 1.71 µM | 7.36 µM and 6.4 µM | 0.925 µM and 0.538 µM | 4.12 µM and 3.35 µM | 1.25 µM and 1.1 µM | 7.09 µM and 6.93 µM | 1.42 µM and 0.536 µM | 11.8 µM and 4.39 µM | 16.1 µM and 13.1 µM | > 100 µM | 0.592 µM and 0.547 µM | 4 µM and 5.17 µM | 1.43 µM and 2.02 µM | 6.01 µM and 6.84 µM | 0.655 µM and 0.133 µM | 1.78 µM and 2.47 µM | 2.74 µM and 2.44 µM | 8.91 µM and 7.4 µM
CCC(=O)Sc1ccccc1C(=O)Nc1ccc(Cl)cc1 | 11.7 µM | > 100 µM | 16.5 µM | 71.6 µM | 3.21 µM | 9.89 µM | 10.2 µM | 38.4 µM | 2.52 µM | 9.67 µM | 6.45 µM | 38 µM | 13.1 µM | > 100 µM | 18.7 µM | 53.9 µM | 19.2 µM | 98.2 µM | 22.9 µM | 76.9 µM
COc1ccc(C2C3=C(NC(=O)C2C#N)c2ccc4ccccc4c2OCC3)cc1 (centres undefined) | 38.9 µM | > 100 µM | 21.9 µM | 59.5 µM | 20.4 µM | 60.6 µM | 33.8 µM | 70.3 µM | 11.4 µM | 43.4 µM | 31.3 µM | > 100 µM | > 100 µM | > 100 µM | 20 µM | 47.1 µM | 21.9 µM | 69.1 µM | 29.5 µM | 76.8 µM
COc1ccc(C(CC(=O)c2ccccc2)C(C(=O)c2ccccc2)C(c2ccc(OC)cc2)C2C(=O)NC(=O)NC2=O)cc1 (centres undefined) | 15.9 µM | > 100 µM | 17.9 µM | > 100 µM | 21.9 µM | 92.8 µM | 2.85 µM | 20.3 µM | 2.3 µM | 50.2 µM | 22.2 µM | 63.7 µM | 26 µM | > 100 µM | > 100 µM | > 100 µM | 32.6 µM | > 100 µM | 43.2 µM | > 100 µM
COc1ccc(/C=C2/CN(C(=O)c3ccccc3F)C/C(=C\c3ccc(OC)cc3)C2=O)cc1 | 4.83 µM | 34.3 µM | 2.95 µM | 9.46 µM | 2.05 µM | 4.32 µM | 4.87 µM | > 100 µM | 10.3 µM | 39.6 µM | 3.49 µM | 82.5 µM | 6.02 µM | > 100 µM | 4.58 µM | 18.3 µM | 11.4 µM | 39.8 µM | 4.95 µM | 17.7 µM
COc1ccc(OC)c(/C=C/[N+](=O)[O-])c1 | 2.85 µM | 15.4 µM and 13.6 µM | – | 4.49 µM and 3.28 µM | – | 11.9 µM | – | 7.74 µM and 7.64 µM | 2.04 µM | 7.23 µM and 10.4 µM | – | 21 µM | – | 8.89 µM and 8.72 µM | – | 26.2 µM and 10.3 µM | 5.3 µM | 12.9 µM and 11.8 µM | 1.86 µM and 5.04 µM | 4.58 µM and 10.5 µM
COC1/C=C/O[C@@]2(C)Oc3c(C)c(O)c4c(O)c(cc(O)c4c3C2=O)NC(=O)/C(C)=C\C=C\[C@H](C)C(O)[C@@H](C)[C@@H](O)[C@@H](C)[C@H](OC(C)=O)[C@@H]1C (some centres undefined) | 16.8 µM and 58.5 µM | 31.3 µM and 143 µM | 16.9 µM | 30.5 µM and 41.9 µM | 29 µM | 37.7 µM and 84.4 µM | 16.9 µM | 30.8 µM and 98.6 µM | 12 µM | 24.3 µM and 23.6 µM | 24 µM | 59.7 µM and 86 µM | 16 µM | 30.6 µM and 28.3 µM | – | 211 µM | 18.1 µM | 32.3 µM and 119 µM | – | 32.1 µM and 39.1 µM
CCCC[C@@H]1NC(=O)[C@H](CCCCN)NC(=O)[C@H](CCCNC(=N)N)NC(=O)[C@H](CC(C)C)NC(=O)[C@@H](NC(=O)[C@H](Cc2cccc(Cl)c2)NC(=O)[C@@H]2CCCN2C(=O)[C@@H](NC(C)=O)C(C)C)CCSSC[C@@H](C(=O)N[C@@H](CCCCN)C(=O)N2CCC[C@H]2C(=O)N2CCC[C@H]2C(=O)N[C@@H](CCC(=O)O)C(N)=O)NC(=O)[C@H](Cc2ccccc2)NC(=O)[C@H](CO)NC(=O)[C@H](C)NC(=O)[C@@H]2CCCN2C1=O | > 50 µM | > 50 µM | > 50 µM | > 50 µM | > 50 µM | > 50 µM | > 50 µM | > 50 µM | > 50 µM | > 50 µM | > 50 µM | > 50 µM | > 50 µM | > 50 µM | > 50 µM | > 50 µM | > 50 µM | > 50 µM | > 50 µM | > 50 µM
COc1ccc(-c2cc3cccc(OC)c3c(=O)o2)cc1OC | 59.4 µM | > 100 µM | 59.3 µM | > 100 µM | 0.636 µM | 88 µM | 0.094 µM | 32 µM | 37.2 µM | > 100 µM | 40.3 µM | > 100 µM | > 100 µM | > 100 µM | 46.2 µM | > 100 µM | 53.1 µM | > 100 µM | > 100 µM | > 100 µM
O=C(Cn1ccnc1[N+](=O)[O-])N(CCO)CCO | > 1250 µM | > 1250 µM | – | > 250 µM | – | > 250 µM | > 1250 µM | > 1250 µM | > 250 µM | > 1250 µM | > 1250 µM | > 1250 µM | > 1250 µM | > 1250 µM | > 58 µM | > 250 µM | 182 µM | 250 µM and > 1250 µM | – | > 250 µM
Cn1ncc2c(Nc3ccc(Br)cc3)nc(Nc3ccc(Br)cc3)nc21 | 4.46 µM | 30.8 µM | 3.74 µM | 13 µM | 4.68 µM | 19.4 µM | 1.87 µM | 4.49 µM | 1.66 µM | 5.23 µM | 3.64 µM | 16.1 µM | 3.51 µM | 16.1 µM | 10.9 µM | 23.5 µM | 2.23 µM | 12.5 µM | 4.75 µM | 19 µM
CCOc1ccc(NC(=O)Nc2cc(C(C)C)ccc2C)cc1 | 4.56 µM | 17.6 µM | 4.37 µM | 14.7 µM | 1.58 µM | 6.24 µM | 6.35 µM | 28.2 µM | 1.83 µM | 7.54 µM | 6.96 µM | 44.7 µM | 3.33 µM | 11.5 µM | 12.3 µM | 35.4 µM | 2.82 µM | 10.2 µM | 2.21 µM | 6.61 µM
